Data on 7 compounds can be found in ChEMBL document CHEMBL1130293, “Studies on the active conformation of the NK1 antagonist CGP 49823. Part 21. Fluoro-olefin analogs of tertiary amide rotamers” (Bioorg Med Chem Lett, 1997).

Chain of Substance-P receptor (P25103 whole entry): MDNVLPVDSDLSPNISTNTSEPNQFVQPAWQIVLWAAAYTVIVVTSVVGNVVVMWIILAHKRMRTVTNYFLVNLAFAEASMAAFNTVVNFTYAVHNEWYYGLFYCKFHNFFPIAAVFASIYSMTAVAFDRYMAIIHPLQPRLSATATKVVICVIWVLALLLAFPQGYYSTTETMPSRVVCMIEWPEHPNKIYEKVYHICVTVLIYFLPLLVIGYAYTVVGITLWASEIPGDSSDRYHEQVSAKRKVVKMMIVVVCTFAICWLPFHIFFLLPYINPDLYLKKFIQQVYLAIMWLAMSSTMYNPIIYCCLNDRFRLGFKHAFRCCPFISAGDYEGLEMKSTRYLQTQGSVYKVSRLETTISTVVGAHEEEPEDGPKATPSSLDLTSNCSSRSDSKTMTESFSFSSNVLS

The assay has as its target Substance-P receptor (Homo sapiens, UniProt P25103). As to the kind of experiment: Tested for the binding affinity against neurokinin NK1 receptor.
A word on the IC50: it is the concentration at which inhibition is half-maximal. In turn, `Cc1cc(C)cc(C(=O)N2CC[C@H](NC(=O)c3ccnc4ccccc34)C[C@H]2Cc2ccccc2)c1` displayed an IC50 of 15 nM.

`Cc1cc(C)cc(/C(F)=C2/CC[C@H](NC(=O)c3ccnc4ccccc34)C[C@H]2Cc2ccccc2)c1` showed an IC50 of 380 nM.

`Cc1cc(C)cc(/C(F)=C2\CC[C@@H](NC(=O)c3ccnc4ccccc34)C[C@@H]2Cc2ccccc2)c1` had an IC50 of 270 nM.

`Cc1cc(C)cc(/C(F)=C2/CC[C@@H](NC(=O)c3ccnc4ccccc34)C[C@@H]2Cc2ccccc2)c1` yielded an IC50 of over 10000 nM.

`Cc1cc(C)cc(/C(F)=C2\CC[C@H](NC(=O)c3ccnc4ccccc34)C[C@H]2Cc2ccccc2)c1` gave a half-inhibitory concentration (IC50) of over 10000 nM.

`Cc1cc(C)cc(/C(F)=C2\CCC(NC(=O)c3ccnc4ccccc34)CC2Cc2ccccc2)c1` (racemic) showed an IC50 of 620 nM.

For `Cc1cc(C)cc(/C(F)=C2/CCC(NC(=O)c3ccnc4ccccc34)CC2Cc2ccccc2)c1` (racemic), the IC50 came to 710 nM. The IC50 values of the last two compounds are within 1.5-fold of each other.
